Assay results reported in patent US9221834B2 (Merck Sharp & Dohme Corp., priority 2010, dated 2015).
pIC50: −log10 of the molar value.

Molecular target: T1, recombinant CETP (rCETP) (Homo sapiens, UniProt P11597)
T1 sequence (P11597 18-493): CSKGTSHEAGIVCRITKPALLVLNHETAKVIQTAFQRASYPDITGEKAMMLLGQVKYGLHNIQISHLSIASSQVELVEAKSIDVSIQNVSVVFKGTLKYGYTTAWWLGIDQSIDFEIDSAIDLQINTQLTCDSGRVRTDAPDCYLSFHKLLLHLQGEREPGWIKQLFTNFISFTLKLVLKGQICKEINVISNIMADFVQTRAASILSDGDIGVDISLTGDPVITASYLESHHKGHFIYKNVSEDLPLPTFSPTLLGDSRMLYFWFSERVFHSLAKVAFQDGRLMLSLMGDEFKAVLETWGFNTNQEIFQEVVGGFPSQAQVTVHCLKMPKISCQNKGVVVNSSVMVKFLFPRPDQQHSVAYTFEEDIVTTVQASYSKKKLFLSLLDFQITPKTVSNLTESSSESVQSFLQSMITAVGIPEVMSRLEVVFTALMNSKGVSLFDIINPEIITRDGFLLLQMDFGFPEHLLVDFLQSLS
Experiment: RTA assay using recombinant CETP (2% RTA)
Assay type: biochemical
Conditions: RTA assay in 2% human serum; read-out: IC50
In short: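 Compounds preincubated 1 h at 37 °C with assay cocktail (CETP buffer: 50 mM Tris pH 7.4, 100 mM NaCl, 1 mM EDTA; human HDL acceptor); transfer started with [3H]cholesteryl oleate- or [3H]triolein-labelled LDL, 60 min at 37 °C. LDL PEG-precipitated; supernatant counted by scintillation, blank-corrected; IC50 from 4-parameter sigmoidal fit of % inhibition vs DMSO control.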

Row | SMILES | pIC50
1 | COc1ccc(-c2ccc(C(=O)O)nc2)cc1-c1ccc(N2CCC2)nc1CN1C(=O)O[C@H](c2cc(C(F)(F)F)cc(C(F)(F)F)c2)[C@@H]1C [Example 120] | 7.48
2 | COc1ccc(-c2ccc(C(=O)O)cn2)cc1-c1ccc(N2CCC2)nc1CN1C(=O)O[C@H](c2cc(C(F)(F)F)cc(C(F)(F)F)c2)[C@@H]1C [Example 121] | 7.55
3 | COc1ccc(CC(C)(C)C(=O)O)cc1-c1ccc(N2CCC2)nc1CN1C(=O)O[C@H](c2cc(C(F)(F)F)cc(C(F)(F)F)c2)[C@@H]1C [Example 122, 3-{3-[6-Azetidin-1-yl-2-({(4S,5R)-5-[3,5-bis(trifluoromethyl)phenyl]-4-methyl-2-oxo-1,3-oxazolidin-3-yl}methyl)pyridin-3-yl]-4-methoxyphenyl}-2,2-dimethylpropanoic acid] | 7.82
4 | CCOC(=O)[C@@H]1CC1c1ccc(OC)c(-c2cnc(N3CCC3)nc2CN2C(=O)O[C@H](c3cc(C(F)(F)F)cc(C(F)(F)F)c3)[C@@H]2C)c1 (stereo partly shown) [Example 124] | 7.48
5 | COc1ccc([C@H]2CC[C@H](C(=O)OC)CC2)cc1-c1cnc(N2CCC2)nc1CN1C(=O)O[C@H](c2cc(C(F)(F)F)cc(C(F)(F)F)c2)[C@@H]1C [Example 125] | 7.22
6 | CCOC(=O)C[C@@H]1CCc2cc(OC)c(-c3cnc(N4CCC4)nc3CN3C(=O)O[C@H](c4cc(C(F)(F)F)cc(C(F)(F)F)c4)[C@@H]3C)cc21 [Example 126] | 6.87
7 | COc1ccc(CC(C)(C)C(=O)OC(C)(C)C)cc1-c1cnc(N2CCC2)nc1CN1C(=O)O[C@H](c2cc(C(F)(F)F)cc(C(F)(F)F)c2)[C@@H]1C [Example 127] | 6.94
8 | COc1ccc([C@H]2CC[C@H](C(=O)OC)CC2)cc1-c1cnc(N2CC(F)(F)C2)nc1CN1C(=O)O[C@H](c2cc(C(F)(F)F)cc(C(F)(F)F)c2)[C@@H]1C [Example 128] | 5.96
9 | CCOC(=O)[C@@H]1CC1c1ccc(OC)c(-c2cnc(N3CC(F)(F)C3)nc2CN2C(=O)O[C@H](c3cc(C(F)(F)F)cc(C(F)(F)F)c3)[C@@H]2C)c1 (stereo partly shown) [Example 129] | 7.74
10 | CCOC(=O)C[C@@H]1CCc2cc(OC)c(-c3cnc(N4CC(F)(F)C4)nc3CN3C(=O)O[C@H](c4cc(C(F)(F)F)cc(C(F)(F)F)c4)[C@@H]3C)cc21 [Example 130] | 7.49
11 | COC(=O)c1ccc(-c2ccc(OC)c(-c3cnc(N4CC(F)(F)C4)nc3CN3C(=O)O[C@H](c4cc(C(F)(F)F)cc(C(F)(F)F)c4)[C@@H]3C)c2)c(C)c1 [Example 131] | 8.00
12 | COC(=O)c1ccc(-c2cc(-c3cnc(N4CC(F)(F)C4)nc3CN3C(=O)O[C@H](c4cc(C(F)(F)F)cc(C(F)(F)F)c4)[C@@H]3C)c(OC)cc2F)c(C)c1 [Example 132] | 8.40
13 | CCc1ccc(-c2ccc(C(=O)OC)cc2C)cc1-c1cnc(N2CC(F)(F)C2)nc1CN1C(=O)O[C@H](c2cc(C(F)(F)F)cc(C(F)(F)F)c2)[C@@H]1C [Example 133] | 7.41
14 | COC(=O)c1ccc(-c2ccc(OC)c(-c3cnc(N4CC(OC)C4)nc3CN3C(=O)O[C@H](c4cc(C(F)(F)F)cc(C(F)(F)F)c4)[C@@H]3C)c2)c(C)c1 [Example 135] | 7.05
15 | COC(=O)c1ccc(-c2cc(-c3cnc(N4CC(OC)C4)nc3CN3C(=O)O[C@H](c4cc(C(F)(F)F)cc(C(F)(F)F)c4)[C@@H]3C)c(OC)cc2F)c(C)c1 [Example 136] | 7.26
16 | CCc1ccc(-c2ccc(C(=O)OC)cc2C)cc1-c1cnc(N2CC(OC)C2)nc1CN1C(=O)O[C@H](c2cc(C(F)(F)F)cc(C(F)(F)F)c2)[C@@H]1C [Example 137] | 6.22
17 | COC(=O)[C@H]1CC[C@H](c2ccc(Cl)c(-c3cnc(N4CC(OC)C4)nc3CN3C(=O)O[C@H](c4cc(C(F)(F)F)cc(C(F)(F)F)c4)[C@@H]3C)c2)CC1 [Example 138] | 5.69
18 | COC(=O)CCc1ccc(OC)c(-c2c(C)nc(N3CC(F)(F)C3)nc2CN2C(=O)O[C@H](c3cc(C(F)(F)F)cc(C(F)(F)F)c3)[C@@H]2C)c1 [Example 139, Methyl 3-{3-[4-({(4S,5R)-5-[3,5-bis(trifluoromethyl)phenyl]-4-methyl-2-oxo-1,3-oxazolidin-3-yl}methyl)-2-(3,3-difluoroazetidin-1-yl)-6-methylpyrimidin-5-yl]-4-methoxyphenyl}propanoate] | 7.89
19 | COC(=O)CCc1ccc(OC)c(-c2cnc(N3CC(OC)C3)nc2CN2C(=O)O[C@H](c3cc(C(F)(F)F)cc(C(F)(F)F)c3)[C@@H]2C)c1 [Example 140, Methyl 3-{3-[4-({(4S,5R)-5-[3,5-bis(trifluoromethyl)phenyl]-4-methyl-2-oxo-1,3-oxazolidin-3-yl}methyl)-2-(3-methoxyazetidin-1-yl)pyrimidin-5-yl]-4-methoxyphenyl}propanoate] | 6.46
20 | COC(=O)CCc1ccc(OC)c(-c2cnc(N3CC(F)C3)nc2CN2C(=O)O[C@H](c3cc(C(F)(F)F)cc(C(F)(F)F)c3)[C@@H]2C)c1 [Example 143] | 8.15

Row | SMILES | pIC50
21 | COC(=O)CCc1ccc(OC)c(-c2cnc(N3CC(F)(F)C3)nc2CN2C(=O)O[C@H](c3cc(C(F)(F)F)cc(C(F)(F)F)c3)[C@@H]2C)c1 [Example 144] | 7.77
22 | COC(=O)CC(C)(C)c1ccc(OC)c(-c2cnc(N3CCC3)nc2CN2C(=O)O[C@H](c3cc(C(F)(F)F)cc(C(F)(F)F)c3)[C@@H]2C)c1 [Example 145] | 7.80
23 | COC(=O)[C@H]1CC[C@H](c2ccc(Cl)c(-c3cnc(N4CCC4)nc3CN3C(=O)O[C@H](c4cc(C(F)(F)F)cc(C(F)(F)F)c4)[C@@H]3C)c2)CC1 [Example 146] | 6.80
24 | COC(=O)[C@H]1CC[C@H](c2ccc(Cl)c(-c3cnc(N4CC(F)(F)C4)nc3CN3C(=O)O[C@H](c4cc(C(F)(F)F)cc(C(F)(F)F)c4)[C@@H]3C)c2)CC1 [Example 147] | 7.03
25 | COc1cc(F)c(-c2ccc(C(=O)O)cc2C)cc1-c1cnc(N2CC(F)C2)nc1CN1C(=O)O[C@H](c2cc(C(F)(F)F)cc(C(F)(F)F)c2)[C@@H]1C [Example 152, 5′-[4-({(4S,5R)-5-[3,5-bis(trifluoromethyl)phenyl]-4-methyl-2-oxo-1,3-oxazolidin-3-yl}methyl)-2-(3-fluoroazetidin-1-yl)pyrimidin-5-yl]-2′-fluoro-4′-methoxy-2-methylbiphen-4-carboxylic acid] | 8.00
26 | COc1ccc(C2C[C@H]2C(=O)O)cc1-c1cnc(N2CCC2)nc1CN1C(=O)O[C@H](c2cc(C(F)(F)F)cc(C(F)(F)F)c2)[C@@H]1C (stereo partly shown) [Example 153] | 7.28
27 | COc1ccc([C@H]2CC[C@H](C(=O)O)CC2)cc1-c1cnc(N2CCC2)nc1CN1C(=O)O[C@H](c2cc(C(F)(F)F)cc(C(F)(F)F)c2)[C@@H]1C [Example 154] | 7.57
28 | COc1cc2c(cc1-c1cnc(N3CCC3)nc1CN1C(=O)O[C@H](c3cc(C(F)(F)F)cc(C(F)(F)F)c3)[C@@H]1C)[C@H](CC(=O)O)CC2 [Example 155] | 7.40
29 | COc1ccc(CC(C)(C)C(=O)O)cc1-c1cnc(N2CCC2)nc1CN1C(=O)O[C@H](c2cc(C(F)(F)F)cc(C(F)(F)F)c2)[C@@H]1C [Example 156] | 7.38
30 | COc1ccc([C@H]2CC[C@H](C(=O)O)CC2)cc1-c1cnc(N2CC(F)(F)C2)nc1CN1C(=O)O[C@H](c2cc(C(F)(F)F)cc(C(F)(F)F)c2)[C@@H]1C [Example 157] | 8.00
31 | COc1ccc(C2C[C@H]2C(=O)O)cc1-c1cnc(N2CC(F)(F)C2)nc1CN1C(=O)O[C@H](c2cc(C(F)(F)F)cc(C(F)(F)F)c2)[C@@H]1C (stereo partly shown) [Example 158] | 7.68
32 | COc1cc2c(cc1-c1cnc(N3CC(F)(F)C3)nc1CN1C(=O)O[C@H](c3cc(C(F)(F)F)cc(C(F)(F)F)c3)[C@@H]1C)[C@H](CC(=O)O)CC2 [Example 159] | 7.26
33 | COc1ccc(-c2ccc(C(=O)O)cc2C)cc1-c1cnc(N2CC(F)(F)C2)nc1CN1C(=O)O[C@H](c2cc(C(F)(F)F)cc(C(F)(F)F)c2)[C@@H]1C [Example 160] | 8.05
34 | COc1cc(F)c(-c2ccc(C(=O)O)cc2C)cc1-c1cnc(N2CC(F)(F)C2)nc1CN1C(=O)O[C@H](c2cc(C(F)(F)F)cc(C(F)(F)F)c2)[C@@H]1C [Example 161] | 8.15
35 | CCc1ccc(-c2ccc(C(=O)O)cc2C)cc1-c1cnc(N2CC(F)(F)C2)nc1CN1C(=O)O[C@H](c2cc(C(F)(F)F)cc(C(F)(F)F)c2)[C@@H]1C [Example 162] | 8.22
36 | COc1ccc(C2C[C@@H]2C(=O)O)cc1-c1cnc(N2CC(F)(F)C2)nc1CN1C(=O)O[C@H](c2cc(C(F)(F)F)cc(C(F)(F)F)c2)[C@@H]1C (stereo partly shown) [Example 163] | 7.85
37 | COc1ccc(-c2ccc(C(=O)O)cc2C)cc1-c1cnc(N2CC(OC)C2)nc1CN1C(=O)O[C@H](c2cc(C(F)(F)F)cc(C(F)(F)F)c2)[C@@H]1C [Example 164] | 7.80
38 | COc1cc(F)c(-c2ccc(C(=O)O)cc2C)cc1-c1cnc(N2CC(OC)C2)nc1CN1C(=O)O[C@H](c2cc(C(F)(F)F)cc(C(F)(F)F)c2)[C@@H]1C [Example 165] | 7.96
39 | CCc1ccc(-c2ccc(C(=O)O)cc2C)cc1-c1cnc(N2CC(OC)C2)nc1CN1C(=O)O[C@H](c2cc(C(F)(F)F)cc(C(F)(F)F)c2)[C@@H]1C [Example 166] | 7.34
40 | COC1CN(c2ncc(-c3cc([C@H]4CC[C@H](C(=O)O)CC4)ccc3Cl)c(CN3C(=O)O[C@H](c4cc(C(F)(F)F)cc(C(F)(F)F)c4)[C@@H]3C)n2)C1 [Example 167] | 6.11
